{"source": "ChEMBL document CHEMBL5149999", "about": "“The Alkaloids from Lophophora diffusa and Other \"False Peyotes\"” (J Nat Prod, 2021)", "key": {"[1]": {"biological_target": "Sigma non-opioid intracellular receptor 1 (Homo sapiens, UniProt Q99720)", "sequence (Q99720 whole entry)": "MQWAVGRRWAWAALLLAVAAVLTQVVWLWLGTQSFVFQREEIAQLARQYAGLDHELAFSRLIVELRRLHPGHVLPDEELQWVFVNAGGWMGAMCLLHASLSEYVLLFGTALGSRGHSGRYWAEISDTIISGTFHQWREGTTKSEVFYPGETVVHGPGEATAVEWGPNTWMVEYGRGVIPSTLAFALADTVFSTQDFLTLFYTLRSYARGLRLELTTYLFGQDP", "assay": "Binding affinity to sigma 1 receptor (unknown origin) assessed as dissociation constant by competitive binding assay"}, "[2]": {"biological_target": "Sigma intracellular receptor 2 (Homo sapiens, UniProt Q5BJF2)", "sequence (Q5BJF2 whole entry)": "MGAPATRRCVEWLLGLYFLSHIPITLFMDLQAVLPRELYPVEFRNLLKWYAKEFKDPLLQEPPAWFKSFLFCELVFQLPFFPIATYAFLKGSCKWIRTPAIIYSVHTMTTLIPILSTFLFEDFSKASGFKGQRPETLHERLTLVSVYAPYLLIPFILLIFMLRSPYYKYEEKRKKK", "assay": "Binding affinity to sigma 2 receptor (unknown origin) assessed as dissociation constant by competitive binding assay"}, "[3]": {"assay": "Acute toxicity in iv dosed mouse assessed as lethal dose incubated for 72 hrs", "format": "organism-based", "settings": "in vivo"}, "[4]": {"assay": "Acute toxicity in ip dosed mouse assessed as lethal dose incubated for 24 hrs", "format": "organism-based", "settings": "in vivo"}, "[5]": {"assay": "Drug tolerance in sc dosed dog", "format": "toxicity, organism-based, Canis lupus familiaris", "settings": "in vivo"}, "[6]": {"assay": "Acute toxicity in po dosed mouse assessed as lethal dose incubated for 72 hrs", "format": "organism-based", "settings": "in vivo"}, "[7]": {"biological_target": "T1, Trace amine-associated receptor 1 (Homo sapiens, UniProt Q96RJ0)", "T1 sequence (Q96RJ0 whole entry)": "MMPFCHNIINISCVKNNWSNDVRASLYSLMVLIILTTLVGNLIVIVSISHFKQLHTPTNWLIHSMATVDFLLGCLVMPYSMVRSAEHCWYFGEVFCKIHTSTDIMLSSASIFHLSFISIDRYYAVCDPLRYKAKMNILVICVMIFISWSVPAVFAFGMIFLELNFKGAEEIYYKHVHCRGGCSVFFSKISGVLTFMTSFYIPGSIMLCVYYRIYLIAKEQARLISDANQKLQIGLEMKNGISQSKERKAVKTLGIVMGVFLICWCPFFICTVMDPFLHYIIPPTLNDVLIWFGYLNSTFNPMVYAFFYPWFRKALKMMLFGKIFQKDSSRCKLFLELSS", "assay": "Agonist activity at human TAAR1 stably expressed in HEK293 cells incubated for 30 mins by cAMP assay", "format": "functional, cell-based"}, "[8]": {"biological_target": "Trace amine-associated receptor 1 (Mus musculus, UniProt Q923Y8)", "sequence (Q923Y8 whole entry)": "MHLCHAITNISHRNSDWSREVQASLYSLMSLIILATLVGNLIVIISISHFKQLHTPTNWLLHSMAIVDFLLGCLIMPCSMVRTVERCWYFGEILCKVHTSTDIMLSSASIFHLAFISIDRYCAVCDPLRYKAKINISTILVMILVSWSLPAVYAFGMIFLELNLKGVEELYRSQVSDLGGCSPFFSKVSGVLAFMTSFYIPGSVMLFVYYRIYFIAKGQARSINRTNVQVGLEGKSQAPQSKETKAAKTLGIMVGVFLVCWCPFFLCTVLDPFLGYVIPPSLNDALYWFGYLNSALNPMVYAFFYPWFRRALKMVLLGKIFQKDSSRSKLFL", "assay": "Agonist activity at mouse TAAR1 stably expressed in HEK293 cells incubated for 30 mins by cAMP assay", "format": "functional, cell-based"}, "[9]": {"biological_target": "Trace amine-associated receptor 1 (Rattus norvegicus, UniProt Q923Y9)", "sequence (Q923Y9 whole entry)": "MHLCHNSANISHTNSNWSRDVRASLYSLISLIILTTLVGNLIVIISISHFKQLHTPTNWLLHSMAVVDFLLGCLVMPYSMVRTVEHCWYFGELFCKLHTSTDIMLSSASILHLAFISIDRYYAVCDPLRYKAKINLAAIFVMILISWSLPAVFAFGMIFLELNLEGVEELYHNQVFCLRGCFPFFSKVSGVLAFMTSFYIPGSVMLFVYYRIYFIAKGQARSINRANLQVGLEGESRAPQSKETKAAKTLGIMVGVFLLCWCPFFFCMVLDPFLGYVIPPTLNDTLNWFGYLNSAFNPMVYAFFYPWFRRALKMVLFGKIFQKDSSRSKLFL", "assay": "Agonist activity at rat TAAR1 stably expressed in HEK293 cells incubated for 30 mins by cAMP assay", "format": "functional, cell-based"}}}
{"molecule": "CNCCc1ccc(O)cc1", "values": [{"measurement": "Kd", "setting": "[1]", "value": 12.4, "unit": "µM"}, {"measurement": "Kd", "setting": "[2]", "value": 6.6, "unit": "µM"}]}
{"molecule": "COc1cc2c(c(O)c1OC)C(C)N(C)CC2", "note": "(centres undefined)", "values": [{"measurement": "LD50 at 72 h", "setting": "[3]", "value": 52.2, "unit": "mg/kg"}, {"measurement": "LD50 at 24 h", "setting": "[4]", "value": 115, "unit": "mg/kg"}, {"measurement": "Activity", "setting": "[5]", "value": 50, "unit": "mg/kg"}, {"measurement": "LD50 at 72 h", "setting": "[6]", "value": 200, "unit": "mg/kg"}]}
{"molecule": "NCCc1ccc(O)cc1", "note": "[TYRAMINE]", "values": [{"measurement": "EC50", "setting": "[7]", "value": 990, "unit": "nM"}, {"measurement": "EC50", "setting": "[8]", "value": 280, "unit": "nM"}, {"measurement": "EC50", "setting": "[9]", "value": 30, "unit": "nM"}]}
